Reference: US20220187282A1, “CARDIOMYOCYTE PROLIFERATION” (The Council of the Queensland Institute of Medical Research, priority 2019, published 2022)
Where two headings read alike, the source gives them in different places.

How the values were obtained:
Type in all cases: biochemical
kinases [1] = molecular target: kinases (Homo sapiens, UniProt O00443); settings: PIK3C2A FRET-Adapta SP; Test Conc(μM):ATP Conc(μM) 1:25
kinases [2] = molecular target: kinases (Homo sapiens, UniProt O15075); settings: DCAMKL1 (DCLK1) FRET-Z-Lyte SP
kinases [3] = molecular target: kinases (Homo sapiens, UniProt O15111); settings: CHUK(IKK alpha) FRET-Adapta SP; Test Conc(μM):ATP Conc(μM) 1:10
kinases [4] = molecular target: kinases (Homo sapiens, UniProt O43353); settings: RIPK2 FRET-Lantha SP; Test Conc(μM) 1
kinases (Homo sapiens, UniProt O43353), sequence (O43353 whole entry): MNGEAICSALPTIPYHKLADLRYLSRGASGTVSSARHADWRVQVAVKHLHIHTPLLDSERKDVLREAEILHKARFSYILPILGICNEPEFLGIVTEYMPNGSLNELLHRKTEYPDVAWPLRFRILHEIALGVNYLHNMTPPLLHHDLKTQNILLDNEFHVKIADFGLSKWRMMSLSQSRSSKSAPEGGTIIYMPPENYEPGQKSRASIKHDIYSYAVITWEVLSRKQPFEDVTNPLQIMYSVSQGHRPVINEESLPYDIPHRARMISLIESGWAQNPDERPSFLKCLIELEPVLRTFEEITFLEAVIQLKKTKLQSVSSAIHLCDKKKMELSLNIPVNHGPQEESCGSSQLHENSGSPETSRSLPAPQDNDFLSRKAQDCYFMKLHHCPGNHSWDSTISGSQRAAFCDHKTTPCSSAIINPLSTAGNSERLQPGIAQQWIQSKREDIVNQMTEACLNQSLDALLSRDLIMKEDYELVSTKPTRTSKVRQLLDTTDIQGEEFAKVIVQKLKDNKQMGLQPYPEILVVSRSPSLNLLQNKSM

kinases [5] = molecular target: kinases (Homo sapiens, UniProt O60285); settings: NUAK1 (ARK5) FRET-Adapta SP; Test Conc(μM):ATP Conc(μM) 1:25
kinases [6] = molecular target: kinases (Homo sapiens, UniProt O75676); settings: RPS6KA4 (MSK2) FRET-Z-Lyte SP; Test Conc(μM):ATP Conc(μM) 1:10
kinases (Homo sapiens, UniProt O75676), sequence (O75676 whole entry): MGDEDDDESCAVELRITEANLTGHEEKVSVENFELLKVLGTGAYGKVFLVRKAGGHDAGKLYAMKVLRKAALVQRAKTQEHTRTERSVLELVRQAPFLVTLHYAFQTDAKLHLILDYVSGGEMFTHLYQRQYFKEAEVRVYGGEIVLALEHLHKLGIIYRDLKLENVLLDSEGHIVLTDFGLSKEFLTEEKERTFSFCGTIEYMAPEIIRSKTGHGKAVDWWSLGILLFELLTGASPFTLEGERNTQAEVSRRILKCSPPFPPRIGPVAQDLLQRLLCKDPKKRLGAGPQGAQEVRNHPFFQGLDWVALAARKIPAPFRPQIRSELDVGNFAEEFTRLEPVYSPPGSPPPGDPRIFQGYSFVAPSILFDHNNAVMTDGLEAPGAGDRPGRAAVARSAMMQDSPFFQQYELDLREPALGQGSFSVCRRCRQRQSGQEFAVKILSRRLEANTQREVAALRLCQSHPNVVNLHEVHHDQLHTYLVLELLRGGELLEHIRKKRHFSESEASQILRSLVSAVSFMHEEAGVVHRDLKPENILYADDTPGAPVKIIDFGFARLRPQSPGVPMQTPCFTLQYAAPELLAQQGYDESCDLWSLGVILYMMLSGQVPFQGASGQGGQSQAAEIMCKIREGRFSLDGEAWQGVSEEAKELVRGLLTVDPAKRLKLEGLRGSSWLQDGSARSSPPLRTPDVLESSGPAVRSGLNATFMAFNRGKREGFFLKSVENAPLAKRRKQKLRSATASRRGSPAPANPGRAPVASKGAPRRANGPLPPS

kinases [7] = molecular target: kinases (Homo sapiens, UniProt P05771); settings: PRKCB1 (PKC beta I) Z-Lyte SP; Test Conc(μM):ATP Conc(μM) 1:200
kinases [8] = molecular target: kinases (Homo sapiens, UniProt P14616); settings: INSRR (IRR) *Mn* Z-Lyte SP; Test Conc(μM):ATP Conc(μM) 1:50
kinases [9] = molecular target: kinases (Homo sapiens, UniProt P17948); settings: FLT1 (VEGFR1) *Mn* Z-Lyte SP; Test Conc(μM):ATP Conc(μM) 1:150
kinases [10] = molecular target: kinases (Homo sapiens, UniProt P21802); settings: FGFR2 *Mn* FRET-Z-Lyte SP; Test Conc(μM):ATP Conc(μM) 1:5
kinases (Homo sapiens, UniProt P21802), sequence (P21802 22-821): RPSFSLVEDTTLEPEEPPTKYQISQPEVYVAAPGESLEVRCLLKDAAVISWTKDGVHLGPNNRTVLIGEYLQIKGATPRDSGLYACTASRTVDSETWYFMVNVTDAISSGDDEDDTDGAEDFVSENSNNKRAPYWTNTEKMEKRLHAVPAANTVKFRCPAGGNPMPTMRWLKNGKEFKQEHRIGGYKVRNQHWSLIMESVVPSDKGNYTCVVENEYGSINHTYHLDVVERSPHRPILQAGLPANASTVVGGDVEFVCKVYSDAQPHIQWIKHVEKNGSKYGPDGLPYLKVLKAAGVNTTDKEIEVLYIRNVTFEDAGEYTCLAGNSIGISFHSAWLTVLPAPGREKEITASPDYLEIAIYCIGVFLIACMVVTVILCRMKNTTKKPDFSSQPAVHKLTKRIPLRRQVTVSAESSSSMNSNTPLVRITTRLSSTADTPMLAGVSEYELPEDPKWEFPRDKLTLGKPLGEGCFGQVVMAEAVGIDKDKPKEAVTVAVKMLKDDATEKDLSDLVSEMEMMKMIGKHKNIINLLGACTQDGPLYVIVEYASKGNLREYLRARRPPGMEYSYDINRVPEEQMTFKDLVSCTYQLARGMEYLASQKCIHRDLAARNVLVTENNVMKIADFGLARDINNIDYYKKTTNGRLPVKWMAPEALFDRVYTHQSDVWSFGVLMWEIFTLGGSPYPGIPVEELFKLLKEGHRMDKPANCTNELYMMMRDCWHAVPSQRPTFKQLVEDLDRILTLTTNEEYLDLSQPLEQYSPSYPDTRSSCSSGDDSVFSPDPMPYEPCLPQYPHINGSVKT

kinases [11] = molecular target: kinases (Homo sapiens, UniProt P27037); settings: ACVR2A FRET-Lantha SP; Test Conc(μM) 1
kinases [12] = molecular target: kinases (Homo sapiens, UniProt P36896); settings: ACVR1B (ALK4) *Mn* Z-Lyte SP; Test Conc(μM):ATP Conc(μM) 1:5
kinases (Homo sapiens, UniProt P36896), sequence (P36896 24-505): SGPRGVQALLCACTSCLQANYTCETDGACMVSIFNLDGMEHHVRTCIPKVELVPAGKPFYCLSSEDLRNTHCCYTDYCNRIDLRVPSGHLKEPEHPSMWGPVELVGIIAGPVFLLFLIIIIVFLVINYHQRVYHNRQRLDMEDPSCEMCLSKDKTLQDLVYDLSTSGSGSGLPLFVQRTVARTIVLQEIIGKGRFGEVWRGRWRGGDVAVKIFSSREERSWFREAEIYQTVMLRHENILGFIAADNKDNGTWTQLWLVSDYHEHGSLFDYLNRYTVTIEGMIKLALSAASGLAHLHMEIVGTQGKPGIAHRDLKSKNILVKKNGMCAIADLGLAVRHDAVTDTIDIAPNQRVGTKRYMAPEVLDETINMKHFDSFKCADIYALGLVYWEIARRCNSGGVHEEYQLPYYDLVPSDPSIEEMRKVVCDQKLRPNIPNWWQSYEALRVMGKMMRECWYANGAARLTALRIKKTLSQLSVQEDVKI

kinases [13] = molecular target: kinases (Homo sapiens, UniProt P41743); settings: PRKCI (PKC iota) Z-Lyte SP; Test Conc(μM):ATP Conc(μM) 1:25
kinases [14] = molecular target: kinases (Homo sapiens, UniProt P42345); settings: FRAP1 (mTOR) *Mn* Z-Lyte SP; Test Conc(μM):ATP Conc(μM) 1:10
kinases [15] = molecular target: kinases (Homo sapiens, UniProt Q02156); settings: PRKCE (PKC epsilon) Z-Lyte SP; Test Conc(μM):ATP Conc(μM) 1:25
kinases [16] = molecular target: kinases (Homo sapiens, UniProt Q13131)
kinases (Homo sapiens, UniProt Q13131), sequence (Q13131 whole entry): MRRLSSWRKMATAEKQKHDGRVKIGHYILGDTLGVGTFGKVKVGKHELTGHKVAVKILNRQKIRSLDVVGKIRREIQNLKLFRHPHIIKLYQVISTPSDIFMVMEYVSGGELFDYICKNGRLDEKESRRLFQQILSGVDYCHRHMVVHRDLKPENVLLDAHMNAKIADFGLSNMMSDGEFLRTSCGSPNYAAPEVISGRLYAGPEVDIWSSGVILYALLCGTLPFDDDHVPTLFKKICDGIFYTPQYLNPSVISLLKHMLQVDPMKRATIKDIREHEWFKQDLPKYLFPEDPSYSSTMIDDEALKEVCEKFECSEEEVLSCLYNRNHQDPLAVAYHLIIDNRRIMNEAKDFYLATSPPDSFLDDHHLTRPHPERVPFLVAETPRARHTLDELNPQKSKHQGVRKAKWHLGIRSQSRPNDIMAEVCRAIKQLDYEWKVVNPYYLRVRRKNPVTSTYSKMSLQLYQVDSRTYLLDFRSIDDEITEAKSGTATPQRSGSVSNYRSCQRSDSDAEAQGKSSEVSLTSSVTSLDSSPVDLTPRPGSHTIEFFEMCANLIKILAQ

kinases [17] = molecular target: kinases (Homo sapiens, UniProt Q14289); settings: PTK2B (FAK2) *Mn* Z-Lyte SP; Test Conc(μM):ATP Conc(μM) 1:5
kinases [18] = molecular target: kinases (Homo sapiens, UniProt Q8NE63); settings: HIPK4 FRET-Z-Lyte SP; Test Conc(μM):ATP Conc(μM) 1:50
kinases [19] = molecular target: kinases (Homo sapiens, UniProt Q9H4A3); settings: Test Conc(μM) 1
kinases [20] = molecular target: kinases (Homo sapiens, UniProt Q9HBH9); settings: MKNK2 (MNK2) FRET-Lantha SP; Test Conc(μM) 1
kinases [21] = molecular target: kinases (Homo sapiens, UniProt Q9NWZ3); settings: IRAK4 *Mn* FRET-Z-Lyte SP; Test Conc(μM):ATP Conc(μM) 1:25
kinases [22] = molecular target: kinases (Homo sapiens, UniProt Q9NYL2); settings: ZAK FRET-Lantha SP; Test Conc(μM) 1
kinases [23] = molecular target: kinases (Homo sapiens, UniProt Q9UBE8); settings: NLK FRET-Lantha SP; Test Conc(μM) 1
kinases (Homo sapiens, UniProt Q9UBE8), sequence (Q9UBE8 whole entry): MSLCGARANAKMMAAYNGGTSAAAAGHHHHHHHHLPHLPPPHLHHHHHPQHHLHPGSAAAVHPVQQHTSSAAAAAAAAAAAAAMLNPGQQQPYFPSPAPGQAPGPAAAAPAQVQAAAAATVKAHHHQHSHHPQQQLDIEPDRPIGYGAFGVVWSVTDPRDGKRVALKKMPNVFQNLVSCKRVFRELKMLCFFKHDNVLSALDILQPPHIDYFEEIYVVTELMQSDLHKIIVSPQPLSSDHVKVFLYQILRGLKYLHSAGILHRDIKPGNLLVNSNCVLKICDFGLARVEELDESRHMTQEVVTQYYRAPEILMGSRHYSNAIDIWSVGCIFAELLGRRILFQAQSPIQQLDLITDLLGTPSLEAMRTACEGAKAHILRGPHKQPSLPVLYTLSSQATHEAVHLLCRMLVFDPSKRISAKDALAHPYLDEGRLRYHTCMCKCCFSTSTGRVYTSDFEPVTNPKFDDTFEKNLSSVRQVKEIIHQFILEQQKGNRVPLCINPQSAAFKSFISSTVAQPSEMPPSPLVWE

kinases [24] = molecular target: kinases (Homo sapiens, UniProt Q9UBS0); settings: RPS6KB2 FRET-Z-Lyte SP; Test Conc(μM):ATP Conc(μM) 1:50
kinases [25] = molecular target: kinases (Homo sapiens, UniProt Q9UF33); settings: EPHA6 FRET-Lantha SP; Test Conc(μM) 1
kinases [26] = molecular target: kinases (Homo sapiens, UniProt Q9UKE5); settings: TNIK FRET-Lantha SP; Test Conc(μM) 1
kinases (Homo sapiens, UniProt Q9UKE5), sequence (Q9UKE5 whole entry): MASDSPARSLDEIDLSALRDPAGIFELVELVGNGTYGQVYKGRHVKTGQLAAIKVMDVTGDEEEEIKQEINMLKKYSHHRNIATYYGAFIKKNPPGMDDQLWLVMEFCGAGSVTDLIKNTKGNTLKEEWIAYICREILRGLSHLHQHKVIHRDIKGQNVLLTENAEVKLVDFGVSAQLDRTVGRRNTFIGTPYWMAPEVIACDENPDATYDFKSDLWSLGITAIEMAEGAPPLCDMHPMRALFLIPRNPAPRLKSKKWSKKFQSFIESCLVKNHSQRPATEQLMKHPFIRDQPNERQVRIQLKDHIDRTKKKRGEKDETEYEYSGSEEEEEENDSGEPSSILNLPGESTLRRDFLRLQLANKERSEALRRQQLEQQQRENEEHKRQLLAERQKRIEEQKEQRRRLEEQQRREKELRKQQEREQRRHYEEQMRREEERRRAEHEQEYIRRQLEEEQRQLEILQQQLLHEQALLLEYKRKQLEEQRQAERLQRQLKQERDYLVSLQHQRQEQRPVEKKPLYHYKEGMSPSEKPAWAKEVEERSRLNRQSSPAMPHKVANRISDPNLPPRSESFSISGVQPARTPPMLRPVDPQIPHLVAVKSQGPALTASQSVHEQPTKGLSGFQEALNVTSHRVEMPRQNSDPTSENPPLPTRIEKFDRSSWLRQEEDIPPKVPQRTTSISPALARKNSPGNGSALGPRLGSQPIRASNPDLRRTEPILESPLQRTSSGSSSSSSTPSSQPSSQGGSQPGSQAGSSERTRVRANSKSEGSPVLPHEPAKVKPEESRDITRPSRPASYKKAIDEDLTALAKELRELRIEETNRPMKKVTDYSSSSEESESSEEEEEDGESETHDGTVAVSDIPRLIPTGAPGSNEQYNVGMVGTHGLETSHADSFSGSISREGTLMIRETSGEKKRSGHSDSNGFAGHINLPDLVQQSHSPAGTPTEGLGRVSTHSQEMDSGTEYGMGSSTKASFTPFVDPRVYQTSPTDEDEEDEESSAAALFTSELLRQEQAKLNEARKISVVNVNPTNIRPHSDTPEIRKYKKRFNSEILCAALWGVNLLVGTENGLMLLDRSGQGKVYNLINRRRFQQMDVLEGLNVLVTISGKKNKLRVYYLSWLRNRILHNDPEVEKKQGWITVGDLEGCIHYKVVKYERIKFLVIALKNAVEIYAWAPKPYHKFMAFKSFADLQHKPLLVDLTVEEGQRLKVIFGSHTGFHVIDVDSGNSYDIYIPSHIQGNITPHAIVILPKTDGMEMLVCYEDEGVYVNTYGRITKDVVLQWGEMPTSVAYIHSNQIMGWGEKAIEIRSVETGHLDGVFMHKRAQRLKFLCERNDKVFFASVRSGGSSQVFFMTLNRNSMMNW

kinases [27] = molecular target: kinases (Homo sapiens, UniProt Q9Y243); settings: AKT3 (PKB gamma) Z-Lyte SP; Test Conc(μM):ATP Conc(μM) 1:100
kinases [28] = molecular target: kinases (Homo sapiens, UniProt Q9Y2U5); settings: MAP3K2 (MEKK2) FRET-Lantha SP; Test Conc(μM) 1
[29] = AMPK (A1/B1/G2) FRET-Lantha SP, Test Conc(μM) 1
[30] = AMPK (A1/B1/G3) FRET-Lantha SP, Test Conc(μM) 1
[31] = AMPK (A1/B2/G1) FRET-Lantha SP, Test Conc(μM) 1
[32] = AMPK A1/B1/G1 FRET-Z-lyte SP, Test Conc(μM):ATP Conc(μM) 1:50
[33] = AMPK A1/B2/G2 FRET-Z-Lyte SP, Test Conc(μM):ATP Conc(μM) 1:10
[34] = AMPK A1/B2/G3 FRET-Z-Lyte SP, Test Conc(μM):ATP Conc(μM) 1:10

| SMILES | Mean Inhib (%) (kinases [1]) | Mean Inhib (%) (kinases [3]) | Mean Inhib (%) (kinases [4]) | Mean Inhib (%) (kinases [5]) | Mean Inhib (%) (kinases [6]) | Mean Inhib (%) (kinases [7]) | Mean Inhib (%) (kinases [8]) | Mean Inhib (%) (kinases [9]) | Mean Inhib (%) (kinases [10]) | Mean Inhib (%) (kinases [11]) | Mean Inhib (%) (kinases [12]) | Mean Inhib (%) (kinases [13]) | Mean Inhib (%) (kinases [14]) | Mean Inhib (%) (kinases [15]) | Mean Inhib (%) (kinases [16]; [29]) | Mean Inhib (%) (kinases [16]; [30]) | Mean Inhib (%) (kinases [16]; [31]) | Mean Inhib (%) (kinases [16]; [32]) | Mean Inhib (%) (kinases [16]; [33]) | Mean Inhib (%) (kinases [16]; [34]) | also measured |
| --- | --- | --- | --- | --- | --- | --- | --- | --- | --- | --- | --- | --- | --- | --- | --- | --- | --- | --- | --- | --- | --- |
| Cc1ccc(NC(=O)c2ccnc(N3CCOCC3)c2)cc1Nc1ccnc(N2CC(C)OC(C)C2)n1 (stereo not drawn) [compound 3] | 1.7% | −6.9% | 13.0% | −5.6% | −0.8% | 27.7% | 13.5% | 11.5% | 15.8% | 3.8% | 6.8% | −0.2% | 0.7% | 12.2% | 5.6% | −10.3% | 0.0% | 0.3% | 12.2% | 20.8% | Mean Inhib (%) (kinases [2]; Test Conc(μM):ATP Conc(μM) 1:300): 31.0%; Mean Inhib (%) (kinases [17]): 8.5%; Mean Inhib (%) (kinases [18]): −2.8%; Mean Inhib (%) (kinases [19]; WNK1 FRET-Lantha SP): 2.7%; Mean Inhib (%) (kinases [20]): 2.2%; Mean Inhib (%) (kinases [21]): 12.7%; Mean Inhib (%) (kinases [22]): 3.1%; Mean Inhib (%) (kinases [23]): −3.5%; Mean Inhib (%) (kinases [24]): 7.8%; Mean Inhib (%) (kinases [25]): 1.9%; Mean Inhib (%) (kinases [26]): 4.1%; Mean Inhib (%) (kinases [27]): 5.8%; Mean Inhib (%) (kinases [28]): 3.5% |
| Cc1cc(Oc2ccnc(Nc3ccc(S(N)(=O)=O)cc3)c2)c(-c2ccccn2)nc1C [compound 65] | 8.7% | −6.2% | 64.0% | −3.5% | 5.3% | −7.3% | 5.5% | 2.7% | 6.0% | 71.5% | 97.8% | 9.7% | −8.8% | 10.0% | 1.3% | −1.2% | 2.3% | −0.6% | −0.5% | −2.4% | Mean Inhib (%) (kinases [2]; Test Conc(μM):ATP Conc(μM) 0.25): 11.8%; Mean Inhib (%) (kinases [17]): −2.5%; Mean Inhib (%) (kinases [18]): 8.8%; WNK1 FRET-Lantha SP Mean Mean Inhib (%) (kinases [19]; WNK1): 5.3%; Mean Inhib (%) (kinases [20]): 2.7%; Mean Inhib (%) (kinases [21]): 6.8%; Mean Inhib (%) (kinases [22]): 78.3%; Mean Inhib (%) (kinases [23]): 88.8%; Mean Inhib (%) (kinases [24]): 2.1%; Mean Inhib (%) (kinases [25]): 54.2%; Mean Inhib (%) (kinases [26]): 58.4%; Mean Inhib (%) (kinases [27]): 4.2%; Mean Inhib (%) (kinases [28]): 5.7% |
